The subject of data set [1] is Escherichia coli ATCC 25922. The format is cell-based. Particulars: Escherichia coli ATCC 25922, reference strain. An excerpt:
(§1) MIC is defined as the lowest concentration, in an antibiotic dilution range, that inhibits visible bacterial growth. The importance of MIC sensitivity test is based on the principle that in vitro sensitivity provides a predictive indication of the in vivo efficacy of the antibiotic therapy. Values are expressed as molar concentration and compared to MIC values obtained with commercially available antibiotics such as amikacin, ceftriaxone and levofloxacin (Table 3).
(§2) Reference strains (Escherichia coli ATCC 25922, Pseudomonas aeruginosa ATCC 27853, Staphylococus aureus ATCC 25923 and Chryseobacterium meningosepticum CCUG 4310) and several recent clinical isolates (including multidrug-resistant ones) of various species (Table 2) were used for conventional susceptibility testing experiments. Minimum Inhibitory Concentration (MIC) was determined by a standard microdilution assay as recommended by the National Commitee for Clinical Laboratory Standards (NCCLS) using cation-supplemented Mueller-Hinton (MH) broth (Oxoid Ltd. Basingstoke, UK) and a bacterial inoculum of 5×10^4 CFU per well, in a final volume of 100 μl. Results were recorded by visual inspection after 24 h of incubation at 37° C.

The test system of data set [2] is Escherichia coli W99FI0077. Type of data set: cell-based. Particulars: Escherichia coli W99FI0077, FQR ESCR (ESBL/SHV type).
From the text: as §1, §2

Data set [3] concerns Klebsiella pneumoniae W99FI0057. Type of data set: cell-based. Particulars: Klebsiella pneumoniae W99FI0057, ESCR (ESBL/SHV type).
From the text: as §1, §2

The subject of data set [4] is Pseudomonas aeruginosa 885149. Type of data set: cell-based. Particulars: Pseudomonas aeruginosa 885149, FQR AGR ESCR CPR (MBL/IMP-13).
From the text: as §1, §2

Data set [5] has as its system Pseudomonas aeruginosa 891. Type of data set: cell-based. Particulars: Pseudomonas aeruginosa 891, FQR AGR ESCR CPR (MBL/VIM-2).
From the text: as §1, §2

For data set [6], the system named is Pseudomonas aeruginosa ATCC27853. The format is cell-based. Particulars: Pseudomonas aeruginosa ATCC27853, reference strain.
From the text: as §1, §2

In data set [7] the test system is Staphylococcus aureus ATCC 25923. Type of data set: cell-based. Particulars: Staphylococcus aureus ATCC 25923, reference strain.
From the text: as §1, §2

Data set [8] deals with Staphylococus aureus MIU-68A. Type of data set: cell-based, Staphylococcus aureus. Particulars: Staphylococus aureus MIU-68A, meticillin-susceptible.
From the text: as §1, §2

In data set [9] the test system is E. coli strain TG1. Put plainly: Test of antibacterial activity (colony growth inhibition) on E. coli strain TG1. The format is cell-based. Particulars: E. coli TG1, colony counting vs control without peptide. The protocol: The antimicrobic activity of the peptides in linear form (L1, L4, L5, L6) and in MAP form (M1, M4, M5, M6) was assayed on the TG1 strain of E. coli. The peptides were incubated at various concentrations (2-1-0.5-0.25-0.12 mg/ml) with cells of E. coli (OD600=0.2) for about 1 hour at 37° C. Subsequently, the cells were plated on agar at dilution such to allow counting of individual colonies. The antimicrobic activity of the synthesised peptide L 1 and M1 is shown FIG. 1 and is compared to a non correlated MAP peptide (MNC) used as negative control.
In one example, the tetrabranched MAP peptides with the amino acid sequence: QAKIRVRLSA [SEQ ID NO: 2], KIRVRLSA [SEQ ID NO: 3], QKKIRVRLSA [SEQ ID NO: 4] are used individually in a bacterial colony growth inhibition test. The test is conducted by incubating different concentrations of MAP peptides with E. coli (strain TG1) and plating bacterial cells on agar at a dilution such to allow for individual colonies counting. The following day, the number of colonies grown after treatment with the three MAP peptides is compared.
Antimicrobic tests were conducted incubating for 75 min at 37° C., 25 μL of E. coli at the OD600 of 0.2 with 25 μl of MAP peptide dissolved in PBS at the various concentrations. The different incubations were further diluted 1:1000 in 2×TY medium and 100 μl were plated on solid 2×TY medium. The plates were left overnight at 30° C. and the individual grown colonies were counted and compared with a control, not treated with MAP peptide.

Data set [10] deals with E. coli ATCC 25922. Put plainly: Minimal bactericidal concentration (MBC). Type of data set: cell-based. The protocol:
as §2
(§3) The MBC was determined as recommended by the National Committee for Clinical Laboratory Standards (NCCLS) on strains of E. coli ATCC 25922 and P. aeruginosa ATCC 27853.

The test system of data set [11] is P. aeruginosa ATCC 27853. Put plainly: Minimal bactericidal concentration (MBC). The format is cell-based. As for the experimental part:
as §2, §3

Data set [12] relates to murine macrophage cells J774 A.1. Put plainly: Cytotoxicity test by MTT. Type of data set: cell-based, mouse. The protocol:
The cytotoxicity of antibacterial MAP peptides was evaluated on different eukaryotic cell lines by a colorimetric assay (MTT). This assay measures the cells' ability to convert a soluble tetrazolium salt into an insoluble precipitate: formazan. The cytotoxicity of M1 was evaluated on murine macrophagic cells (J774 A.1), murine myeloma cells (SPO) and Chinese hamster ovary epithelium cells (CHO K1). As shown FIG. 4, even at high concentrations (1 mg/ml) M1 cytotoxicity on CHO K1 cells and on SPO cells is low (percent survival is 80-90%).
(§4) For cytotoxicity tests, different cell lines were used: murine myeloma cells SPO, hamster ovary epithelium cells CHO K 1, murine macrophage cells J774 A.1 and human keratinocytes HaCaT. The cells were plated in medium in RPMI 1640 (SPO and CHO K 1) and DMEM (J774 A.1 and HaCaT) with antibiotics and bovine foetal serum at 10%, in 96-well plates at the concentration of 6×10^4 (SPO, CHO K1 and J774 A.1) and 3×10^4 (HaCaT). Peptides, previously filtered with a 0.2 μm filter disk (Whatman), were added at various concentrations to the different cell lines and left in incubation over night at 37° C. Cell viability was determined adding the MTT tetrazolium salt at the concentration of 0.5 mg/ml and incubating for 90 min. The cells were solubilised with a solution at pH 4.5 containing SDS 10% and dimethylformamide 45% and read at the dual wavelength of 595/650 nm with a plate reader.

Data set [13] concerns human keratinocytes HaCaT. The experiment in a line: Cytotoxicity test by MTT. The format is cell-based. Particulars: up to 1 mg/ml. As for the experimental part:
as §4

Data set [14] deals with Pichia pastoris yeast strain X33. Put plainly: Effect on Pichia pastoris yeast colonies. The format is cell-based. Particulars: Pichia pastoris X33, data not shown. As for the experimental part: To a volume of 50 μl of culture of Pichia pastoris grown 24 hour at 30° C. in YPD (Yeast Extract/Peptone/Dextrose) medium, 50 μl of MAP peptides (2 mg/ml) were added and left in incubation 150 min at 37° C. Subsequently, 50 μl of each incubation were plated on YPD solid medium and it was allowed to grow for 48 hours at 30° C. The number of colonies grown was compared with a control, where the yeast was not treated with the MAP.

The subject of data set [15] is human erythrocytes. The experiment in a line: Haemolysis, Parpart erythrocyte osmotic resistance assay. Type of data set: cell-based. Particulars: 19 hours incubation, 125 μg/ml. The protocol:
The haemolytic activity of M5 and M6 was also evaluated and is represented FIG. 9. Haemolysis of fresh human erythrocytes was determined at peptide concentrations ranging from 1 to 125 μg/ml. […] By contrast, after 19 hours of incubation, the haemolysis induced by M6 and M5 at 125 μg/ml is 7% and 19%, respectively. The percentage of haemolysis of untreated blood after 19 hours (control) is very limited (<1%).
The haemolytic activity of the KIRVRLSA [SEQ ID NO: 3] (M5) and […] [SEQ ID NO: 4] (M6) peptides was evaluated by the Parpart erythrocyte osmotic resistance assay in NaCl. The percentage of haemolysis was calculated by means of a calibration curve obtained incubating the erythrocytes with increasing concentrations of NaCl and measuring the absorbance increase, due to haemolysis, at 540 nm. 0.9% NaCl solutions containing the MAP peptides at different concentrations were then prepared, whereto was added human blood in the ratio of 1:100 (v/v). The samples were left at ambient temperature for 30 min and 19 hours; subsequently, a portion was drawn for each incubation, centrifuged at 1500 rpm for 5 min and the absorbance of the super was measured with the spectrophotometer at 540 nm.

≈ marks a conversion by molar mass, not a printed value. Read-outs that look alike come from different tables or passages of the source. Positions of bridges follow the written chain, without caps; N, C: chain ends. Residues, ends and D or L forms follow the SMILES beside them. Chains are numbered I, II in the order given.

Regarding `CC[C@H](C)[C@H](NC(=O)[C@@H](N)CCCCN)C(=O)N[C@@H](CCCNC(=N)N)C(=O)N[C@H](C(=O)N[C@@H](CCCNC(=N)N)C(=O)N[C@@H](CC(C)C)C(=O)N[C@@H](CO)C(=O)N[C@@H](C)C(=O)NCCCC[C@H](NC(=O)[C@H](C)NC(=O)[C@H](CO)NC(=O)[C@H](CC(C)C)NC(=O)[C@H](CCCNC(=N)N)NC(=O)[C@@H](NC(=O)[C@H](CCCNC(=N)N)NC(=O)[C@@H](NC(=O)[C@@H](N)CCCCN)[C@@H](C)CC)C(C)C)C(=O)NCCCC[C@H](NC(=O)[C@H](CCCCNC(=O)[C@H](C)NC(=O)[C@H](CO)NC(=O)[C@H](CC(C)C)NC(=O)[C@H](CCCNC(=N)N)NC(=O)[C@@H](NC(=O)[C@H](CCCNC(=N)N)NC(=O)[C@@H](NC(=O)[C@@H](N)CCCCN)[C@@H](C)CC)C(C)C)NC(=O)[C@H](C)NC(=O)[C@H](CO)NC(=O)[C@H](CC(C)C)NC(=O)[C@H](CCCNC(=N)N)NC(=O)[C@@H](NC(=O)[C@H](CCCNC(=N)N)NC(=O)[C@@H](NC(=O)[C@@H](N)CCCCN)[C@@H](C)CC)C(C)C)C(=O)N[C@@H](C)C(=O)O)C(C)C` [M5, KIRVRLSA] (I: H-KIRVRLSAKKA-OH / II: H-KIRVRLSAK / III: H-KIRVRLSA / IV: H-KIRVRLSA; amide I:9-IV:C, I:10-II:C, II:9-III:C; N-terminus assumed), the “MIC (Molarity)” value was 3.8 µM (≈ 15.8 µg/mL) in data set [1]; 31 µM (≈ 129 µg/mL) in data set [2]; >31 µM in data set [3]; 7.6 µM (≈ 31.7 µg/mL) in data set [4]; 3.8 µM (≈ 15.8 µg/mL) in data set [5]; 3.8 µM (≈ 15.8 µg/mL) in data set [6]. Besides, the figures for the “MIC (Molarity)” value in data set [7], in data set [7] (listed as KIRVRLSA) and in data set [8] were 3.1e-05 M (≈ 129 µg/mL), ~10^−5 M and 31 µM (≈ 129 µg/mL), respectively. For the same compound, the “Antibacterial activity on E. coli TG1 colony growth” value in data set [9] is “good antibacterial activity”. In addition, the “MBC (minimal concentration able to kill 99.9% of the inoculum) compared with MIC” value is “equal to the calculated values of MIC” in data set [10], “equal to the corresponding MIC values” in [10] (listed as KIRVRLSA), “equal to the calculated values of MIC” in data set [11] and “equal to the corresponding MIC values” in data set [11] (listed as KIRVRLSA). For the same compound, the “Effect on cell viability (MTT)” value in data set [12] (J774.A1, overnight, 30 μg/ml) is “did not substantially affect cell viability”. Also, the “Vitality of J774 A.1 cells as the concentration of MAP peptides increases (MTT)” value in data set [12] (J774 A.1) is reported as “decreases”. Further, the “Toxicity for human keratinocyte HaCaT cells (MTT)” value is reported as “low toxicity” in data set [13] and “particularly resistant” in [13] (listed as KIRVRLSA). Moreover, in data set [14], the “Number of yeast colonies vs negative control” value is listed as “did not differ from the negative control”. For the same compound, the “haemolysis of human erythrocytes” value in data set [15] is recorded as 19%.

These data come from patent publication US8268961B2, “Antibacterial peptides and analogues thereof” (Universita Degli Studi di Siena, priority 2004, dated 2012).
